Test results reported in patent US9422285B2, “Substituted pyrazolo[1,5-A]-pyridine-3-carboxamides and use thereof” (Bayer Pharma Aktiengesellschaft, priority 2014, dated 2016).
Counter-ions that a name gives are not always drawn.

The compounds below were run against T1, recombinant guanylate cyclase reporter cell line (Rattus norvegicus, UniProt P19686+P20595) (assay: Effect on a recombinant guanylate cyclase reporter cell line (B-2)). Details: in some cases mean values for individual determinations.
T1 construct: expressed in transfected cells
T1 sequence (P19686 1-690): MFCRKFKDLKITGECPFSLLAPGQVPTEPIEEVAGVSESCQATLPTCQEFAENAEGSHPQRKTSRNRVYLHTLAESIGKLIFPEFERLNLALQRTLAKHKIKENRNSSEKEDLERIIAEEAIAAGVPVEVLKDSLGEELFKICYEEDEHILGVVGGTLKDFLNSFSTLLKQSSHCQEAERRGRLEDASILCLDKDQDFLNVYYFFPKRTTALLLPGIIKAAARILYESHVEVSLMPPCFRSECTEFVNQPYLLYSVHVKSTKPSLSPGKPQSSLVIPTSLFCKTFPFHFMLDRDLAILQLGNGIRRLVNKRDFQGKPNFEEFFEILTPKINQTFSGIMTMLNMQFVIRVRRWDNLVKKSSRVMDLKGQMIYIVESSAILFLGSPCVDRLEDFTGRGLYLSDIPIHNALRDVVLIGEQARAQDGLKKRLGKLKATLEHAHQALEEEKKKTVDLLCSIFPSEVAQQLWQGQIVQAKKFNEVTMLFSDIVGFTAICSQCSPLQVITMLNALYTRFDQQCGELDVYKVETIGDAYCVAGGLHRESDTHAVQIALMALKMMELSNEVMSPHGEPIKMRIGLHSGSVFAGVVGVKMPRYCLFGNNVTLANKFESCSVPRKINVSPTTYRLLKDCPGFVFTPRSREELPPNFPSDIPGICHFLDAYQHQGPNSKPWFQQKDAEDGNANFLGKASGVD
T1 sequence (P20595 1-619): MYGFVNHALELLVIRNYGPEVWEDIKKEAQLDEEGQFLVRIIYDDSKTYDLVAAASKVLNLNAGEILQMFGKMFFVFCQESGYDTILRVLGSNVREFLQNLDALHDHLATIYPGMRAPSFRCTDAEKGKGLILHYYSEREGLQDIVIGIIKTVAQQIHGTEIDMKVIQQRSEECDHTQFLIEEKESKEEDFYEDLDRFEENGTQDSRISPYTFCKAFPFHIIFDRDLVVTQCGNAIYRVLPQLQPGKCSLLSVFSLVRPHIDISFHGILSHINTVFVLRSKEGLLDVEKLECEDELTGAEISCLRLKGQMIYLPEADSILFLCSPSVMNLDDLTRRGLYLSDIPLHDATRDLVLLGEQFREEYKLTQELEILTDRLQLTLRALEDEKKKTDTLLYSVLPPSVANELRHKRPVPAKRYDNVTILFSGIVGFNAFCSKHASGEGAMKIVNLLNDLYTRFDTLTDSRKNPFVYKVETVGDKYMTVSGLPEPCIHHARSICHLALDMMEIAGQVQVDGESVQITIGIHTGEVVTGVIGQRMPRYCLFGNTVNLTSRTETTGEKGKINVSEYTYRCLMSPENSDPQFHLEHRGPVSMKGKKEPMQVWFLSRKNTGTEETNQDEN
Format: cell-based
Description: B-2. Effect on a Recombinant Guanylate Cyclase Reporter Cell Line
The cellular effect of the inventive compounds is determined using a recombinant guanylate cyclase reporter cell line, as described in F. Wunder et al., Anal. Biochem. 339, 104-112 (2005).
Representative MEC values (MEC=minimum effective concentration) for the inventive compounds are shown in the table below (in some cases as mean values for individual determinations): […]

| SMILES | MEC (minimum effective concentration) |
| --- | --- |
| Cc1cc(OCc2c(F)cccc2F)n2nc(C)c(C(=O)NCC(C)(N)CC(F)F)c2c1 (single isomer, unassigned) [Example 46, ent-N-(2-Amino-4,4-difluoro-2-methylbutyl)-7-[(2,6-difluorobenzyl)oxy]-2,5-dimethylpyrazolo[1,5-a]pyridine-3-carboxamide] | 2.0 µM |
| Cc1cc(OCc2c(F)cccc2F)n2nc(C)c(C(=O)NCC(C)(N)CC(F)F)c2c1 (single isomer, unassigned) [Example 47, ent-N-(2-Amino-4,4-difluoro-2-methylbutyl)-7-[(2,6-difluorobenzyl)oxy]-2,5-dimethylpyrazolo[1,5-a]pyridine-3-carboxamide] | 1.0 µM |
| Cc1cc(OCc2c(F)cccc2F)n2nc(C)c(C(=O)NCC(C)(N)CCF)c2c1 (single isomer, unassigned) [Example 49, ent-N-(2-Amino-4-fluoro-2-methylbutyl)-7-[(2,6-difluorobenzyl)oxy]-2,5-dimethylpyrazolo[1,5-a]pyridine-3-carboxamide] | 0.3 µM |
| Cc1cc(OCc2c(F)cccc2F)n2nc(C)c(C(=O)NCC(C)(N)CCF)c2c1 (single isomer, unassigned) [Example 50, ent-N-(2-Amino-4-fluoro-2-methylbutyl)-7-[(2,6-difluorobenzyl)oxy]-2,5-dimethylpyrazolo[1,5-a]pyridine-3-carboxamide] | 0.3 µM |
| CCCc1nn2c(OCc3c(F)cccc3F)cc(C)cc2c1C(=O)NCC(C)(N)CCC (single isomer, unassigned) [Example 51, ent-N-(2-Amino-2-methylpentyl)-7-[(2,6-difluorobenzyl)oxy]-5-methyl-2-propylpyrazolo[1,5-a]pyridine-3-carboxamide] | 1.0 µM |
| CCCC(C)(N)CNC(=O)c1c(C(F)(F)F)nn2c(OCc3c(F)cccc3F)cc(C)cc12 (single isomer, unassigned) [Example 52, ent-N-(2-Amino-2-methylpentyl)-7-[(2,6-difluorobenzyl)oxy]-5-methyl-2-(trifluoromethyl)pyrazolol[1,5-a]pyridine-3-carboxamide trifluoroacetate] | 0.3 µM |
| CCCC(C)(N)CNC(=O)c1cnn2c(OCc3c(F)cccc3F)cc(C)cc12 (single isomer, unassigned) [Example 53, ent-N-(2-Amino-2-methylpentyl)-7-[(2,6-difluorobenzyl)oxy]-5-methylpyrazolo[1,5-a]pyridine-3-carboxamide] | 3.0 µM |
| CCC(C)(N)CNC(=O)c1c(C2CC2)nn2c(OCc3c(F)cccc3F)cc(C)cc12 (single isomer, unassigned) [Example 54, ent-N-(2-Amino-2-methylbutyl)-2-cyclopropyl-7-[(2,6-difluorobenzyl)oxy]-5-methylpyrazolo[1,5-a]pyridine-3-carboxamide] | 0.3 µM |
| Cc1cc(OCc2c(F)cccc2F)n2nc(C3CC3)c(C(=O)NCC(C)(N)CC(F)F)c2c1 (single isomer, unassigned) [Example 56, ent-N-(2-Amino-4,4-difluoro-2-methylbutyl)-2-cyclopropyl-7-[(2,6-difluorobenzyl)oxy]-5-methylpyrazolo[1,5-a]pyridine-3-carboxamide] | 0.3 µM |
| Cc1cc(OCc2c(F)cccc2F)n2nc(C3CC3)c(C(=O)NCC(C)(N)CC(F)F)c2c1 (single isomer, unassigned) [Example 57, ent-N-(2-Amino-4,4-difluoro-2-methylbutyl)-2-cyclopropyl-7-[(2,6-difluorobenzyl)oxy]-5-methylpyrazolo[1,5-a]pyridine-3-carboxamide] | 0.3 µM |
| Cc1cc(OCc2c(F)cccc2F)n2nc(C3CC3)c(C(=O)NCC(C)(N)CCC(F)(F)F)c2c1 (single isomer, unassigned) [Example 58, ent-N-(2-Amino-5,5,5-trifluoro-2-methylpentyl)-2-cyclopropyl-7-[(2,6-difluorobenzyl)oxy]-5-methylpyrazolo[1,5-a]pyridine-3-carboxamide] | 0.03 µM |
| Cc1cc(OCc2c(F)ccc(F)c2F)n2nc(C)c(C(=O)NC(CCC(F)(F)C(F)(F)F)C(C)(C)O)c2c1 (single isomer, unassigned; ent-2) [Example 22, ent-2,5-Dimethyl-N-(6,6,7,7,7-pentafluoro-2-hydroxy-2-methylheptan-3-yl)-7-[(2,3,6-trifluorobenzyl)oxy]pyrazolo[1,5-a]pyridine-3-carboxamide] | 0.1 µM |
| Cc1cc(OCc2c(F)cccc2F)n2nc(C)c(C(=O)NC3CC(C)Nc4ccc(C(F)(F)F)nc43)c2c1 (single isomer, unassigned; ent-7) [Example 86, ent-7-[(2,6-Difluorobenzyl)oxy]-2,5-dimethyl-N-[2-methyl-6-(trifluoromethyl)-1,2,3,4-tetrahydro-1,5-naphthyridin-4-yl]pyrazolo[1,5-a]pyridine-3-carboxamide] | 3.0 µM |
| Cc1cc(OCc2c(F)cccc2F)n2nc(C)c(C(=O)NCC(C)(C)N)c2c1 [Example 1, N-(2-Amino-2-methylpropyl)-7-[(2,6-difluorobenzyl)oxy]-2,5-dimethylpyrazolo[1,5-a]pyridine-3-carboxamide formate] | 2 µM |
| Cc1cc(OCc2c(F)ccc(F)c2F)n2nc(C)c(C(=O)NCCC3(O)CCCC3)c2c1 [Example 5, N-[2-(1-Hydroxycyclopentyl)ethyl]-2,5-dimethyl-7-[(2,3,6-trifluorobenzyl)oxy]pyrazolo[1,5-a]pyridine-3-carboxamide] | 0.3 µM |
| Cc1cc(OCc2c(F)ccc(F)c2F)n2nc(C)c(C(=O)NC3c4ccccc4CC3O)c2c1 (stereo not shown) [Example 6] | 1.0 µM |
| Cc1cc(OCc2c(F)ccc(F)c2F)n2nc(C)c(C(=O)N[C@@H](CO)C(=O)Nc3ccc4ccccc4c3)c2c1 [Example 7, N-[(2S)-3-Hydroxy-1-(2-naphthylamino)-1-oxopropan-2-yl]-2,5-dimethyl-7-[(2,3,6-trifluorobenzyl)oxy]pyrazolo[1,5-a]pyridine-3-carboxamide] | 1.0 µM |
| CCC(N)(CC)CNC(=O)c1c(C)nn2c(OCc3c(F)ccc(F)c3F)cc(C)cc12 [Example 8, N-(2-Amino-2-ethylbutyl)-2,5-dimethyl-7-[(2,3,6-trifluorobenzyl)oxy]pyrazolo[1,5-a]pyridine-3-carboxamide] | 0.3 µM |
| Cc1cc(OCc2c(F)ccc(F)c2F)n2nc(C)c(C(=O)NC3CC(C)(C)NC(C)(C)C3)c2c1 [Example 9, 2,5-Dimethyl-N-(2,2,6,6-tetramethylpiperidin-4-yl)-7-[(2,3,6-trifluorobenzyl)oxy]pyrazolo[1,5-a]pyridine-3-carboxamide] | 1.0 µM |
| Cc1cc(OCc2c(F)ccc(F)c2F)n2nc(C)c(C(=O)Nc3c(C)nn(CCO)c3C)c2c1 [Example 11, N-[1-(2-Hydroxyethyl)-3,5-dimethyl-1H-pyrazol-4-yl]-2,5-dimethyl-7-[(2,3,6-trifluorobenzyl)oxy]pyrazolo[1,5-a]pyridine-3-carboxamide] | 1.0 µM |
| Cc1cc(OCc2c(F)ccc(F)c2F)n2nc(C)c(C(=O)NCCN(C)C)c2c1 [Example 12, N-[2-(Dimethylamino)ethyl]-2,5-dimethyl-7-[(2,3,6-trifluorobenzyl)oxy]pyrazolo[1,5-a]pyridine-3-carboxamide] | 3.0 µM |
| Cc1cc(OCc2c(F)ccc(F)c2F)n2nc(C)c(C(=O)NCc3ccccc3-c3cccnc3)c2c1 [Example 14, 2,5-Dimethyl-N-[2-(pyridin-3-yl)benzyl]-7-[(2,3,6-trifluorobenzyl)oxy]pyrazolo[1,5-a]pyridine-3-carboxamide] | 0.3 µM |
